Assay: gradient 5% acetonitrile 3 min, to 50% in 2 min, to 85% in 15 min, held 3 min, 100 µL/min
Conditions: column: Zorbax Extend-C18 2.1 x 50 mm; eluents: water / acetonitrile, 0.1% formic acid
Procedure, shortened: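 Retention times come from adduct peaks that were picked computationally and then checked by hand. The standards, pure and pooled in mixtures of ~100 molecules, were run on a Zorbax Extend-C18 column (2.1 × 50 mm, 1.8 μm) at 100 μL/min with water and acetonitrile, each with 0.1% formic acid. Detection was by quadrupole time-of-flight mass spectrometry in positive and negative ionization mode, with a dead volume of 40 μL and a dwell volume of 900 μL.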

Row | SMILES | RP-LC retention time [s]
1 | COC(=O)c1c(NCCO)c2cccc(Cl)c2[nH]c1=O | 610
2 | Cn1c(=O)c(=O)n(C)c2cc(N3CCCC3)c(NC(=O)Cc3ccccc3Cl)cc21 | 793
3 | CCc1ccccc1NC(=O)N1CC=C(c2cn(C(C)C)c3ncccc23)CC1 | 958
4 | O=C([C@@H]1C[C@H](F)CN1S(=O)(=O)Cc1ccc(Cl)cc1)N1CCCCC1 | 881
5 | O=C(c1ccc(F)cc1)N1c2nc(-c3ccccc3)nn2C2(CCCCC2)[C@@H]2CCCC[C@@H]21 | 576
6 | CC(=O)N1CCC(c2nc(-c3ccc(CNC(=O)C4CC4)s3)no2)CC1 | 661
7 | COc1ccc(-c2nc(C)cc(C)c2CNS(=O)(=O)c2ccc(C#N)cc2)cc1 | 636
8 | COc1ccc(OCC(=O)Nc2ccc3c(c2)N(C(=O)c2ccco2)CCC3)cc1 | 861
9 | CCOC(=O)c1c(C)oc2nc(C)nc(NCC3CCN(Cc4ccc(F)cc4)CC3)c12 | 712
10 | Cn1c(=O)n(C)c2cc(S(=O)(=O)c3ccc(F)cc3)c(NC(=O)c3ccccc3)cc21 | 885
11 | COc1ccc(S(=O)(=O)NCC2CCN(Cc3cc(C)oc3C)CC2)cc1Cl | 660
12 | Cc1ccc2c(c1)C1CC(C)(O2)N(c2cccc(C(=O)O)c2)C(=O)N1 (stereo unspecified) | 912
13 | CCCn1nc(CNC(=O)Cc2cccs2)c2ccccc21 | 847
14 | CCc1sc(NC(=O)c2cc3c([nH]c2=O)CCCC3=O)nc1-c1ccc(C)c(C)c1 | 1030
15 | Cc1cc(OCC(=O)N2CCCC2)nc(-c2ccc(Cl)cc2)n1 | 937
16 | CCn1c(CCc2ccccc2NS(=O)(=O)c2cc(F)ccc2F)nc2ccccc21 | 764
17 | CCOc1ccc2cccc(NC(=O)C3CCN(S(C)(=O)=O)CC3)c2n1 | 864
18 | Cc1cc(=O)n(CC(=O)NCc2ccccc2Br)c(N2CCOCC2)n1 | 660

Row | SMILES | RP-LC retention time [s]
19 | CN1CCN(CCCNC(=O)c2ccc(NC(=O)C3=CSCCO3)cc2)CC1 | 876
20 | CN(CCCNC(=O)C1CCN(c2nnc3ccc(Cl)cn23)CC1)c1ccccc1 | 606
21 | CN1CCN(CCNC(=O)C2CCc3sc(C(=O)N4CCOCC4)cc3C2)CC1 (stereo unspecified) | 543
22 | Cn1cc(-c2cc3n(n2)CCC(=O)N3CCCC(=O)N2CCCCC2)c2ccccc21 | 802
23 | COc1ccc(Br)cc1CNC(=O)C1CCN(c2ccc3nnc(C)n3n2)CC1 | 797
24 | O=C(NCc1cc(F)cc(F)c1)c1cn2cc(Cl)ccc2n1 | 857
25 | NC(=O)c1nccn1Cc1ccccc1 | 645
26 | CC1=C(c2ccc(C)cc2)S(=O)(=O)N=C1N1CCC(NC(=O)C2CCCO2)CC1 (stereo unspecified) | 902
27 | CCc1nn2c(CNS(=O)(=O)c3ccc(C)cc3C)c(-c3ccccc3)nc2s1 | 1020
28 | O=C(Nc1nnc(-c2ccc(Cl)s2)o1)c1ccc2ncsc2c1 | 733
29 | Cn1nc(C(=O)N2CCOCC2)c2c1CN(C(=O)Cc1ccsc1)C2 | 640
30 | CCN(C(=O)c1ccc(C)cc1)c1nc(-c2ccc(C)cc2)cs1 | 1320
31 | Cc1cccc(N2CCN(c3ccc4cc(S(=O)(=O)N5CCCCC5C)ccc4n3)CC2)c1C (stereo unspecified) | 1330
32 | O=C(NCC1CCN(C(=O)c2cc3ccccc3o2)CC1)Nc1c(F)cccc1F | 729
33 | COc1ccc(N2CC(C(=O)N3CCc4cc(-c5ccno5)ccc43)CC2=O)cc1 (stereo unspecified) | 807
34 | Clc1cccc(-c2ccc(CNCc3ccco3)o2)c1 | 837
35 | C=CC(=O)Nc1ccc2ncnc(Nc3ccc(OCc4cccc(F)c4)c(Cl)c3)c2c1 | 825
36 | Cc1ccc(N(C)C(=O)C2CCN(S(=O)(=O)c3ccc4c(c3)NC(=O)CO4)CC2)cc1 | 780

Reference: the METLIN SMRT retention time set (Domingo-Almenara et al. 2019)
